Values belong to the compound of their own block, whether it stands above or below them. Calls of active or inactive are those of the source. The calls are words filed in the database; no cut-off is given here.
Assays:
[1] = Maximum oral bioavailability in rat hepatocytes based well stirred liver model at 1 uM measured after 2 to 90 mins by LC-MS/MS analysis; type: ADME, Hepatocyte; conditions: time 2-90 min, read-out: Fmax
[2] = molecular target: T1, Prostaglandin F2-alpha receptor (Homo sapiens, UniProt P43088); assay: Antagonist activity at human FPR expressed in human Chem-1 cells assessed as inhibition of PGF2alpha-induced calcium flux preincubated for 10 mins followed by PGF2alpha stimulation and measured for 120 secs by fluo-8 AM dye based fluorescence assay; type: functional, cell-based
[3] = Relative oral bioavailability in Wistar rat at 1 to 3 mg/kg administered via gavage using crystalline form of sample in sodium salt formulation by LC-MS/MS analysis; type: ADME, organism-based; conditions: in vivo, dose 1-3 mg/kg
[4] = Efflux ratio of apparent permeability across basolateral to apical side over apical to basolateral side in human Caco-2 cells measured after 2 hrs by HPLC analysis; type: ADME, cell-based
Homo sapiens [5] = species: Homo sapiens; assay: Selectivity ratio of IC50 for displacement of [3H]prostaglandin E2 from full-length recombinant human EP4 receptor expressed in Chem-1 cell membranes to IC50 for displacement of [3H]PGF2alpha from full-length recombinant human FP receptor expressed in HEK293 cell membranes
[6] = Clearance in Wistar rat hepatocytes assessed as extrapolated blood clearance at 1 uM measured after 2 to 90 mins by LC-MS/MS analysis; type: ADME, cell-based, Hepatocyte; conditions: time 2-90 min
Cytochrome P450 2D6 = Cytochrome P450 2D6 (Homo sapiens, UniProt P10635); assay: Inhibition of CYP2D6 in human liver microsomes using dextromethorphan as substrate incubated for 15 mins in presence of NADPH generating system by LC-MS/MS analysis; type: ADME
[7] = Half life in Wistar rat at 0.3 to 1 mg/kg, iv administered as bolus dose by LC-MS/MS analysis; type: ADME, organism-based; conditions: in vivo, dose 0.3-1 mg/kg
Cytochrome P450 2C9 = Cytochrome P450 2C9 (Homo sapiens, UniProt P11712); assay: Inhibition of CYP2C9 in human liver microsomes using diclofenac as substrate incubated for 15 mins in presence of NADPH generating system by LC-MS/MS analysis; type: ADME
Cytochrome P450 2C8 = Cytochrome P450 2C8 (Homo sapiens, UniProt P10632); assay: Inhibition of CYP2C8 in human liver microsomes using amodiaquine as substrate incubated for 15 mins in presence of NADPH generating system by LC-MS/MS analysis; type: ADME
Cytochrome P450 1A2 = Cytochrome P450 1A2 (Homo sapiens, UniProt P05177); assay: Inhibition of CYP1A2 in human liver microsomes using phenacetin as substrate incubated for 15 mins in presence of NADPH generating system by LC-MS/MS analysis; type: ADME
[8] = Oral bioavailability in Wistar rat at 1 to 3 mg/kg administered via gavage using EtOH/PEG400/H2O/DMSO 8/40/50/2 formulation by LC-MS/MS analysis; type: ADME, organism-based; conditions: in vivo, dose 1-3 mg/kg
[9] = Clearance in Wistar rat at 0.3 to 1 mg/kg, iv administered as bolus dose by LC-MS/MS analysis; type: ADME, organism-based; conditions: in vivo, dose 0.3-1 mg/kg
[10] = Oral bioavailability in Wistar rat at 1 to 3 mg/kg administered via gavage using EtOH/PEG400/H2O 10/40/50 formulation by LC-MS/MS analysis; type: ADME, organism-based; conditions: in vivo, dose 1-3 mg/kg
Cytochrome P450 3A4 = Cytochrome P450 3A4 (Homo sapiens, UniProt P08684); assay: Inhibition of CYP3A4 in human liver microsomes using midazolam as substrate incubated for 10 mins in presence of NADPH generating system by LC-MS/MS analysis
Homo sapiens [11] = species: Homo sapiens; assay: Selectivity ratio of IC50 for displacement of [3H]prostaglandin E2 from full-length recombinant human EP2 receptor expressed in HEK293 cell membranes to IC50 for displacement of [3H]PGF2alpha from full-length recombinant human FP receptor expressed in HEK293 cell membranes
[12] = molecular target: Prostaglandin E2 receptor EP2 subtype (Homo sapiens, UniProt P43116); assay: Displacement of [3H]prostaglandin E2 from full-length recombinant human EP2 receptor expressed in HEK293 cell membranes measured after 120 mins by scintillation counting method
Homo sapiens [13] = species: Homo sapiens; assay: Selectivity ratio of IC50 for displacement of [3H]prostaglandin E2 from full-length recombinant human EP3 receptor expressed in HEK293 cell membranes to IC50 for displacement of [3H]PGF2alpha from full-length recombinant human FP receptor expressed in HEK293 cell membranes
[14] = molecular target: Prostaglandin E2 receptor EP3 subtype (Homo sapiens) (UniProt P43115); assay: Displacement of [3H]prostaglandin E2 from full-length recombinant human EP3 receptor expressed in HEK293 cell membranes measured after 120 mins by scintillation counting method
Homo sapiens [15] = species: Homo sapiens; assay: Selectivity ratio of IC50 for displacement of [3H]PGD2 from full-length recombinant human IP receptor expressed in HEK293 cell membranes to IC50 for displacement of [3H]PGF2alpha from full-length recombinant human FP receptor expressed in HEK293 cell membranes
Prostacyclin receptor = Prostacyclin receptor (Homo sapiens, UniProt P43119); assay: Displacement of [3H]PGD2 from full-length recombinant human IP receptor expressed in HEK293 cell membranes measured after 60 mins by scintillation counting method
Homo sapiens [16] = species: Homo sapiens; assay: Selectivity ratio of IC50 for displacement of [3H]prostaglandin E2 from full-length recombinant human EP1 receptor expressed in HEK293 cell membranes to IC50 for displacement of [3H]PGF2alpha from full-length recombinant human FP receptor expressed in HEK293 cell membranes
[17] = molecular target: Prostaglandin D2 receptor (Homo sapiens) (UniProt Q13258); assay: Displacement of [3H]PGD2 from full-length recombinant human DP1 receptor expressed in Chem-1 cell membranes measured after 120 mins by scintillation counting method
[18] = molecular target: Prostaglandin E2 receptor EP4 subtype (Homo sapiens, UniProt P35408); assay: Displacement of [3H]prostaglandin E2 from full-length recombinant human EP4 receptor expressed in HEK293 cell membranes measured after 120 mins by scintillation counting method
[19] = molecular target: T1, Prostaglandin F2-alpha receptor; assay: Displacement of [3H]PGF2alpha from full-length recombinant human FP receptor expressed in HEK293 cell membranes measured after 60 mins by scintillation counting method
Homo sapiens [20] = species: Homo sapiens; assay: Selectivity ratio of IC50 for displacement of [3H]PGD2 from full-length recombinant human DP1 receptor expressed in Chem-1 cell membranes to IC50 for displacement of [3H]PGF2alpha from full-length recombinant human FP receptor expressed in HEK293 cell membranes
[21] = molecular target: Prostaglandin E2 receptor EP1 subtype (Homo sapiens) (UniProt P34995); assay: Displacement of [3H]prostaglandin E2 from full-length recombinant human EP1 receptor expressed in HEK293 cell membranes measured after 60 mins by scintillation counting method
[22] = molecular target: Prostaglandin F2-alpha receptor (Mus musculus) (UniProt P43117); assay: Antagonist activity at FPR in mouse NIH3T3 cells co-transfected with mtClytin assessed as inhibition of PGF2alpha-induced calcium flux preincubated for 5 mins followed by PGF2alpha stimulation and measured for 60 secs by calcium dye based fluorescence assay; type: functional, cell-based; conditions: filed as antagonist, time 6.0 min
Mus musculus [23] = assay: Antifibrotic activity in silica-induced pulmonary fibrosis C57Bl6J mouse model assessed as decrease in lung IL1beta production at 3 to 30 mg/kg, po bid for 9 days measured post-last dose by Bio-Rad analysis; type: functional, organism-based; conditions: dose mg/kg 3-30, time 9.0 day
Mus musculus [24] = assay: Antifibrotic activity in silica-induced pulmonary fibrosis C57Bl6J mouse model assessed as decrease in lung osteopontin production at 3 to 30 mg/kg, po bid for 9 days measured post-last dose by Bio-Rad analysis; type: functional, organism-based; conditions: dose mg/kg 3-30, time 9.0 day
Mus musculus [25] = assay: Antifibrotic activity in silica-induced pulmonary fibrosis C57Bl6J mouse model assessed as decrease in lung MCP1 production at 3 to 30 mg/kg, po bid for 9 days measured post-last dose by Bio-Rad analysis; type: functional, organism-based; conditions: dose mg/kg 3-30, time 9.0 day
[26] = Lipophilicity, log D of compound at pH 7.5 by HPLC analysis; conditions: buffer
[27] = Clearance in Wistar rat at 0.3 to 1 mg/kg, iv administered as bolus dose or 15 mins infusion by LC-MS/MS analysis; type: ADME, organism-based; conditions: Wistar, in vivo, dose 0.3-1 mg/kg
[28] = Protein binding in pooled human plasma assessed as unbound fraction incubated for 6 hrs by LC-MS/MS analysis based equilibrium dialysis method; type: ADME, cell-free
[29] = Apparent permeability in human Caco-2 cells measured after 2 hrs by HPLC analysis; type: ADME, cell-based

T1 sequence (P43088 whole entry): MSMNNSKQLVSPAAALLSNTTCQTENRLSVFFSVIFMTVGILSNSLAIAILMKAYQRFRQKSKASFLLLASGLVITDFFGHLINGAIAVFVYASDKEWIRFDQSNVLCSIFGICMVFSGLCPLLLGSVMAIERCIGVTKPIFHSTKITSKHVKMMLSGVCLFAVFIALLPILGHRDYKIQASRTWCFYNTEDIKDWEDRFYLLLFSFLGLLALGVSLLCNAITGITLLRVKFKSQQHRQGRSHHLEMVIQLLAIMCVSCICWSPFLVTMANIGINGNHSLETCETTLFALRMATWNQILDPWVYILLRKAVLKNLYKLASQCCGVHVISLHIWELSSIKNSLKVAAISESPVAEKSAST
Sequence of Cytochrome P450 3A4 (P08684 whole entry): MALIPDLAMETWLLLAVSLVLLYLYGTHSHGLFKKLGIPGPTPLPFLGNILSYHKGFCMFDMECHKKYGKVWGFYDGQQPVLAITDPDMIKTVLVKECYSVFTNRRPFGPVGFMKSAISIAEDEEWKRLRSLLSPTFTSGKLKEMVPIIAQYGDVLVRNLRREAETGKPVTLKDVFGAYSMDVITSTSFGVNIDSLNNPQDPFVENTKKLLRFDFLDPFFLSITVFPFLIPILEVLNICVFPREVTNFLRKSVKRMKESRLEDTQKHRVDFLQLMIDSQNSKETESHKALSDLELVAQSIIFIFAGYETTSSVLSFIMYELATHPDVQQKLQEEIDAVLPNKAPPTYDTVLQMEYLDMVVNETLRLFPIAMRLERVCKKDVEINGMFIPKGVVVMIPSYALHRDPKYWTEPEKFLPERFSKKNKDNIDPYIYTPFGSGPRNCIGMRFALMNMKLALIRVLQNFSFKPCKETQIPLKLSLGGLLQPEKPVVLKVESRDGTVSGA
Sequence of Cytochrome P450 2D6 (P10635 whole entry): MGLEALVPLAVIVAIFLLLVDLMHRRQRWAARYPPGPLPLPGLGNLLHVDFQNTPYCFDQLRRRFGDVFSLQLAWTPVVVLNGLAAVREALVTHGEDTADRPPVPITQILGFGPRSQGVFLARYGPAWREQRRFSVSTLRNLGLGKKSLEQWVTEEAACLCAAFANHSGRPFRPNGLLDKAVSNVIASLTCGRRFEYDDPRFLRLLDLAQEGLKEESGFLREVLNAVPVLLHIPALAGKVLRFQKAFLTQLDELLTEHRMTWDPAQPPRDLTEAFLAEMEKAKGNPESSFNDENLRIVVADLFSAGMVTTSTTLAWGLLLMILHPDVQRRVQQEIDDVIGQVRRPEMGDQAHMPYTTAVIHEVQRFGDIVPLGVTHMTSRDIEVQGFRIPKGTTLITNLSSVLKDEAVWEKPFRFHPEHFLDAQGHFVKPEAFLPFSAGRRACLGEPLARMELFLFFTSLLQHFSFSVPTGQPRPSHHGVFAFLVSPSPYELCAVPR
Sequence of Prostaglandin E2 receptor EP3 subtype (Homo sapiens) (P43115 whole entry): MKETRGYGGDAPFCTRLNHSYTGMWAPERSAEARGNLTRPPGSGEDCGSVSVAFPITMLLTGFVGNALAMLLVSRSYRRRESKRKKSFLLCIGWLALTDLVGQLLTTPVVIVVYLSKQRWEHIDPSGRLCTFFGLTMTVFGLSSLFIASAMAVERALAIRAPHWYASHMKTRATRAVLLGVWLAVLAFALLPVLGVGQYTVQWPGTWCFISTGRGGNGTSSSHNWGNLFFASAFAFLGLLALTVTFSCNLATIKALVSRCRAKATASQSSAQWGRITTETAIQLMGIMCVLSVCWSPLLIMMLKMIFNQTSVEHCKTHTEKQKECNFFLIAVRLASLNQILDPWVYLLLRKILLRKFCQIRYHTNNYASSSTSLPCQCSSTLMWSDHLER
Sequence of Prostaglandin D2 receptor (Homo sapiens) (Q13258 whole entry): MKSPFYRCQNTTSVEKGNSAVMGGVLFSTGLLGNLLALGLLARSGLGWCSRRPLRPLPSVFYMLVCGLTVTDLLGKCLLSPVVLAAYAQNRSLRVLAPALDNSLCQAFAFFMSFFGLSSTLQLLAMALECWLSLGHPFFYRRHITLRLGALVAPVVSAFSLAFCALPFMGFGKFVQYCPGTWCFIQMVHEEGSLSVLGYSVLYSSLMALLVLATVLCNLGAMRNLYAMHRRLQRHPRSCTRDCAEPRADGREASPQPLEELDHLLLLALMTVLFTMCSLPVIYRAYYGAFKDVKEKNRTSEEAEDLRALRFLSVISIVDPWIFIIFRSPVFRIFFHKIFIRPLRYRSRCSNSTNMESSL
Sequence of Prostaglandin E2 receptor EP4 subtype (P35408 whole entry): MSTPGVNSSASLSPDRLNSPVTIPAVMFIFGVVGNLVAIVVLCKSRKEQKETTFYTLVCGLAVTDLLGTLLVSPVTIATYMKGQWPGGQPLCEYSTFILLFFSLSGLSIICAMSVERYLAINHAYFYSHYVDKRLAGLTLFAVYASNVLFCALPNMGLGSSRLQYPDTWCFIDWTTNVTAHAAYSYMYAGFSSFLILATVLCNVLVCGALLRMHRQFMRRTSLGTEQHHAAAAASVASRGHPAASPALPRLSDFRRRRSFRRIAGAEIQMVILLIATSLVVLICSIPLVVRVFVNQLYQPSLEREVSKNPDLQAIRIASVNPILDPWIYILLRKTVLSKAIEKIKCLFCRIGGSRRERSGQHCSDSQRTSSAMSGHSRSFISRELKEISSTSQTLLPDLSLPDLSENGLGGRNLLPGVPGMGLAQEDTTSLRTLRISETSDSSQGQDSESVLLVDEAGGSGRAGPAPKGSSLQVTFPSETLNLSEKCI
Sequence of Prostaglandin F2-alpha receptor (Mus musculus) (P43117 whole entry): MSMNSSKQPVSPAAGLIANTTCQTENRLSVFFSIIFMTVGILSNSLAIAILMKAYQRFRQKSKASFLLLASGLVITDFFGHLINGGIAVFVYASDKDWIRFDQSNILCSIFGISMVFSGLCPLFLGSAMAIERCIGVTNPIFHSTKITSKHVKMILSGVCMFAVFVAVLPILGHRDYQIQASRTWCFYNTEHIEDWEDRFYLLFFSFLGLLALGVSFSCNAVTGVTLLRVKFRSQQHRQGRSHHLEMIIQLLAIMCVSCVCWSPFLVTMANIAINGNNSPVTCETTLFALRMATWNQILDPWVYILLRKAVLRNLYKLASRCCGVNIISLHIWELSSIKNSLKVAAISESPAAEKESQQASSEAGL
Sequence of Cytochrome P450 1A2 (P05177 whole entry): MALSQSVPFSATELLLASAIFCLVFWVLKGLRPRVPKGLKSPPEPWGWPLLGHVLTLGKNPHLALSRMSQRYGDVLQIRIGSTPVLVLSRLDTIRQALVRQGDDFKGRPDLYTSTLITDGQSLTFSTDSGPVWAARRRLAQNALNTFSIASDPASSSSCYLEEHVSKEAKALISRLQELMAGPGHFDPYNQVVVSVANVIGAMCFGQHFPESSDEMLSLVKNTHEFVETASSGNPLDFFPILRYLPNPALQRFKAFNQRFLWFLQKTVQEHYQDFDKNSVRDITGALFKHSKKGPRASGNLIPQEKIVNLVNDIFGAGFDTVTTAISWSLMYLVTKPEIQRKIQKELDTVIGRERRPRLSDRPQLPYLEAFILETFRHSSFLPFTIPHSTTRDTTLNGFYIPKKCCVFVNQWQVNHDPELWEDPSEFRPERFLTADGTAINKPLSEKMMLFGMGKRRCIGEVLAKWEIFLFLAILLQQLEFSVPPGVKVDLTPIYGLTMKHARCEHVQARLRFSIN
Sequence of Cytochrome P450 2C8 (P10632 whole entry): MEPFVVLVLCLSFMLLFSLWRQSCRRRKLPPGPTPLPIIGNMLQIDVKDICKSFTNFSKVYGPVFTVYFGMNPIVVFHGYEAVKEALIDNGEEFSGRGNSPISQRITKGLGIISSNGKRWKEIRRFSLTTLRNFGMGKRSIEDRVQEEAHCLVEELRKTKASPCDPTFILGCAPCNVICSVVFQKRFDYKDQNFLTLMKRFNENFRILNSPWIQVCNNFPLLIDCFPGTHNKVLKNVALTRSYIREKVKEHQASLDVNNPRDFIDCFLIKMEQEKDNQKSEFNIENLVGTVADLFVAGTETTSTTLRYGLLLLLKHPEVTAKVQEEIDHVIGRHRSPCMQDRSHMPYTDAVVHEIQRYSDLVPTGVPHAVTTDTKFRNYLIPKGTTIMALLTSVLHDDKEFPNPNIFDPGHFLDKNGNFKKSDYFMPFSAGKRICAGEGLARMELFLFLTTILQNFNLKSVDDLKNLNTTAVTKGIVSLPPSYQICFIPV
Sequence of Cytochrome P450 2C9 (P11712 whole entry): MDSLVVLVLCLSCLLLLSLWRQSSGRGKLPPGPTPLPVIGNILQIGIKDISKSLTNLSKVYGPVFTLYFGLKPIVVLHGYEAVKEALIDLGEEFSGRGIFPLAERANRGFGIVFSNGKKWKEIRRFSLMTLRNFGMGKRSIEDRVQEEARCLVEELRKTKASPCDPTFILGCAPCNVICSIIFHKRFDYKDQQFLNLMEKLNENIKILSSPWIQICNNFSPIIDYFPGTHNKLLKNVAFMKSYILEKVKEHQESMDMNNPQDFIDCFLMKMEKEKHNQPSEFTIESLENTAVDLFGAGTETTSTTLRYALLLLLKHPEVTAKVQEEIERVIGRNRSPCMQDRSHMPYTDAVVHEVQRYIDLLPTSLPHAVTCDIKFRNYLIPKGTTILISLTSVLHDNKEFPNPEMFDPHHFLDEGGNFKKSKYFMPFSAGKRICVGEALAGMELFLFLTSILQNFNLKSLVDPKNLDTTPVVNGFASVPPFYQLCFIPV
Sequence of Prostacyclin receptor (P43119 whole entry): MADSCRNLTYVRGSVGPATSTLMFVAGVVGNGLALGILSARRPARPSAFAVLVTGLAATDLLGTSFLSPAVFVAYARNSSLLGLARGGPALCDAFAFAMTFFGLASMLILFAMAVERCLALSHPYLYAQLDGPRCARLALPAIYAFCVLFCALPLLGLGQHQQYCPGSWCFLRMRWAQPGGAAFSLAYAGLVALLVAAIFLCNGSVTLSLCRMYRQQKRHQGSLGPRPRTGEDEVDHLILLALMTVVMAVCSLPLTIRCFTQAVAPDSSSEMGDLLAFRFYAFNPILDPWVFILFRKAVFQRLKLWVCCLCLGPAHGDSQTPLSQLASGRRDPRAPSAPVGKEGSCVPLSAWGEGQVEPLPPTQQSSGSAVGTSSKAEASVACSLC

SMILES: Cc1c(-c2ccccc2)nc2ccc(Br)cc2c1C(=O)NCCc1ccccn1
Fh at 1 µM [1]: 7%
IC50 [2]: 200 nM

SMILES: Cc1c(-c2ccccc2)nc2ccc(Br)cc2c1C(=O)NC12CCC(C(=O)[O-])(CC1)CC2.[Na+]
bioavailability [3]: 80%

SMILES: Cc1c(-c2ccccc2)nc2ccc(Br)cc2c1C(=O)Nc1ccc(C(N)=O)cc1F
efflux ratio at 2 h [4]: 18
Ratio IC50 (Homo sapiens [5]): 16
CLhep predicted at 1 µM [6]: 58.3 mL/min/kg

SMILES: Cc1c(-c2ccccc2)nc2ccc(Br)cc2c1C(=O)NC12CCC(C(=O)O)(CC1)CC2
IC50 (Cytochrome P450 2D6): > 10000 nM
half-life [7]: 15 h
IC50 (Cytochrome P450 2C9): > 10000 nM
IC50 (Cytochrome P450 2C8): > 10000 nM
IC50 (Cytochrome P450 1A2): > 10000 nM
bioavailability [8]: 90%
clearance [9]: 0.5 mL/min/kg
bioavailability [10]: 100%
IC50 (Cytochrome P450 3A4): > 10000 nM

SMILES: Cc1c(-c2cccs2)nc2ccc(Br)cc2c1C(=O)NCCc1cccnc1
Ratio IC50 (Homo sapiens [11]): > 3.1
IC50 [12]: 4400 nM
Ratio IC50 (Homo sapiens [13]): > 3.1
inhibition [14]: inactive
Ratio IC50 (Homo sapiens [15]): > 3.1
inhibition (Prostacyclin receptor): inactive
Ratio IC50 (Homo sapiens [16]): > 3.1
inhibition [17]: inactive
inhibition [18]: inactive
IC50 [19]: 1400 nM
Ratio IC50 (Homo sapiens [20]): > 3.1
inhibition [21]: inactive
Ratio IC50 (Homo sapiens [5]): > 3.1
IC50 [2]: 1800 nM

SMILES: Cc1c(-c2ccccc2)nc2ccc(Br)cc2c1C(=O)NCC(CCC(=O)O)c1ccccc1Cl (single isomer, unassigned; (+))
half-life [7]: 5.5 h
clearance [27]: 30 mL/min/kg
bioavailability [10]: 75%
IC50 (Cytochrome P450 3A4): > 20000 nM
logD [26]: 2.2
IC50 [2]: 9 nM

The next lines start with results.

fIC50 [22]: 5.2 nM
SMILES: Cc1c(N2CCCC2)nc2ccc(Br)cc2c1C(=O)NC[C@H](CCC(=O)O)c1ccccc1Cl
Activity (Mus musculus [23]): Active
Activity (Mus musculus [24]): Active
Activity (Mus musculus [25]): Active

logD [26]: 3.1
Fh at 1 µM [1]: 24%
IC50 [2]: 190 nM
SMILES: Cc1c(-c2ccccc2)nc2ccc(Br)cc2c1C(=O)NCC(C)c1ccccn1 (racemic)

clearance [27]: 63.3 mL/min/kg
IC50 [19]: < 1 nM
fraction unbound at 6 h [28]: < 0.01
CLhep predicted at 1 µM [6]: 65 mL/min/kg
Fh at 1 µM [1]: 6%
IC50 [2]: 14 nM
SMILES: COc1ccccc1C(C)CNC(=O)c1c(C)c(-c2ccccc2)nc2ccc(Br)cc12 (single isomer, unassigned; (-))

clearance [27]: 55 mL/min/kg
CLhep predicted at 1 µM [6]: 15 mL/min/kg
Fh at 1 µM [1]: 78%
SMILES: Cc1c(-c2ccccc2)nc2ccc(Br)cc2c1C(=O)NCC(C(=O)O)c1ccccc1Cl (stereo in doubt; 31)

Papp at 2 h [29]: 40.1 ×10⁻⁶ cm/s
clearance [27]: 33.3 mL/min/kg
IC50 (Cytochrome P450 3A4): 13000 nM
SMILES: Cc1c(-c2ccccc2)nc2ccc(Br)cc2c1C(=O)NCC(CCCC(=O)O)c1ccccc1Cl (stereo in doubt; 44)

— ChEMBL document CHEMBL4665834 (J Med Chem, 2020)
